Data published in ChEMBL document CHEMBL5291721, “A preclinical secondary pharmacology resource illuminates target-adverse drug reaction associations of marketed drugs” (Nat Commun, 2023).

What was measured:
[1] = target: T1, 5-hydroxytryptamine receptor 1A (Homo sapiens, UniProt P08908); assay type: functional, cell-based
T1 sequence (P08908 whole entry): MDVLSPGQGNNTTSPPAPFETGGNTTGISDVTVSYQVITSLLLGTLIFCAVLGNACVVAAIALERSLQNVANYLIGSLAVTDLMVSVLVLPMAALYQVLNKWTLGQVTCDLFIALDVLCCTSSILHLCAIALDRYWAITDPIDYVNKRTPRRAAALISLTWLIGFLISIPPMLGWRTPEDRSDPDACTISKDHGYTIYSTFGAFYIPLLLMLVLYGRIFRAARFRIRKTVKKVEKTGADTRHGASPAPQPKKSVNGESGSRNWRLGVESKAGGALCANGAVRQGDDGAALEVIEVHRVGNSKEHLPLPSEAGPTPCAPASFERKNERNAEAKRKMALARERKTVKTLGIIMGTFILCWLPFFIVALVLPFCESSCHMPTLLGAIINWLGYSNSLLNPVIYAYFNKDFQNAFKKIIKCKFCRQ

[2] = target: T2, 5-hydroxytryptamine receptor 3A (Homo sapiens, UniProt P46098); assay type: functional
T2 sequence (P46098 whole entry): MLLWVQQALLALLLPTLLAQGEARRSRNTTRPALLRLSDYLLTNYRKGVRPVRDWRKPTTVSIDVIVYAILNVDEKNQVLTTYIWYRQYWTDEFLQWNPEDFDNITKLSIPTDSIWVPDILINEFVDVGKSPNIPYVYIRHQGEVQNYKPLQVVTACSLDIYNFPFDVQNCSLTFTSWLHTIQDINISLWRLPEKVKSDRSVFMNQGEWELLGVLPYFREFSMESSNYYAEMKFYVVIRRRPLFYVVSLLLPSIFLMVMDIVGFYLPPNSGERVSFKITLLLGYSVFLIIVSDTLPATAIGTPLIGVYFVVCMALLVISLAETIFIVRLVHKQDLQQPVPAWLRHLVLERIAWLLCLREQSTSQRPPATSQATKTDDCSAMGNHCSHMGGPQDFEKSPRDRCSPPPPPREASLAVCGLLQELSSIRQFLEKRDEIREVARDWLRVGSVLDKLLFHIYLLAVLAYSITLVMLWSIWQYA

[3] = target: T1, 5-hydroxytryptamine receptor 1A; assay type: functional, cell-based; remark: listed apart in the source
[4] = target: Histamine H2 receptor (Homo sapiens, UniProt P25021); assay type: functional, cell-based
[5] = target: Gamma-aminobutyric acid receptor subunit alpha-1 (Rattus norvegicus, UniProt P62813)
[6] = target: D(1A) dopamine receptor (Homo sapiens, UniProt P21728); assay type: functional, cell-based
[7] = target: Melanocortin receptor 3 (Homo sapiens, UniProt P41968)
[8] = target: T3, Thromboxane A2 receptor (Homo sapiens, UniProt P21731)
T3 sequence (P21731 whole entry): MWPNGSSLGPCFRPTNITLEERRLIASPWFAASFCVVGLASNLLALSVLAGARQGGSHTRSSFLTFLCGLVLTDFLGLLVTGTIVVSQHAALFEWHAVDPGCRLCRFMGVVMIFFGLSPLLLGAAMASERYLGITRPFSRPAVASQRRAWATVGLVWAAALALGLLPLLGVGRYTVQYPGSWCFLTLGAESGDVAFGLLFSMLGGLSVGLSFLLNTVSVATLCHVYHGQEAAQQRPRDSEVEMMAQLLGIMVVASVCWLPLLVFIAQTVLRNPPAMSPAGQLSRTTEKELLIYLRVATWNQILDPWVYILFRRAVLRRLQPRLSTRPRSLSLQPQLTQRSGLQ

[9] = target: T4, Progesterone receptor (Homo sapiens, UniProt P06401); assay type: functional
T4 sequence (P06401 whole entry): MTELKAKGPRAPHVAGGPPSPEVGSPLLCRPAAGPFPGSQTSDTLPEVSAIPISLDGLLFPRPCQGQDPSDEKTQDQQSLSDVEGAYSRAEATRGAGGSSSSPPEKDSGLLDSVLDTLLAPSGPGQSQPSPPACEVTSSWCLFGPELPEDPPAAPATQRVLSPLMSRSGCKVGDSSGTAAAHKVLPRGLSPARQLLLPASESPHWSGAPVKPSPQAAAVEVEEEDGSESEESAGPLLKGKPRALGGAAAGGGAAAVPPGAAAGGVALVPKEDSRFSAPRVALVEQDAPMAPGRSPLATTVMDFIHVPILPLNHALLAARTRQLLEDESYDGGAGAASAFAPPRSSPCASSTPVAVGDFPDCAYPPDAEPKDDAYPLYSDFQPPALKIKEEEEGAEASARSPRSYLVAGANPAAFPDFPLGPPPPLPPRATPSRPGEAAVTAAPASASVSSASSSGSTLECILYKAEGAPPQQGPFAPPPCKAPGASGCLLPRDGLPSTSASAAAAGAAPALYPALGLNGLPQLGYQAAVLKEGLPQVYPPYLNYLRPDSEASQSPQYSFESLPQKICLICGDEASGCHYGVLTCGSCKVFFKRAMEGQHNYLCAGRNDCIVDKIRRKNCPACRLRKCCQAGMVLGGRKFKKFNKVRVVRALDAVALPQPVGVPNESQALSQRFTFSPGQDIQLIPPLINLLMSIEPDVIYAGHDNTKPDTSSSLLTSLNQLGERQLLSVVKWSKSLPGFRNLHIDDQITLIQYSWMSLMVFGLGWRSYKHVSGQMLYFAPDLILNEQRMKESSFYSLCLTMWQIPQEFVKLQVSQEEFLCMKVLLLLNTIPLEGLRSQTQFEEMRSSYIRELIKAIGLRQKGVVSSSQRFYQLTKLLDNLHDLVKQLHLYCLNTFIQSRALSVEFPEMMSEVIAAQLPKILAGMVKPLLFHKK

[10] = target: T5, Equilibrative nucleoside transporter 1 (Homo sapiens, UniProt Q99808)
T5 sequence (Q99808 whole entry): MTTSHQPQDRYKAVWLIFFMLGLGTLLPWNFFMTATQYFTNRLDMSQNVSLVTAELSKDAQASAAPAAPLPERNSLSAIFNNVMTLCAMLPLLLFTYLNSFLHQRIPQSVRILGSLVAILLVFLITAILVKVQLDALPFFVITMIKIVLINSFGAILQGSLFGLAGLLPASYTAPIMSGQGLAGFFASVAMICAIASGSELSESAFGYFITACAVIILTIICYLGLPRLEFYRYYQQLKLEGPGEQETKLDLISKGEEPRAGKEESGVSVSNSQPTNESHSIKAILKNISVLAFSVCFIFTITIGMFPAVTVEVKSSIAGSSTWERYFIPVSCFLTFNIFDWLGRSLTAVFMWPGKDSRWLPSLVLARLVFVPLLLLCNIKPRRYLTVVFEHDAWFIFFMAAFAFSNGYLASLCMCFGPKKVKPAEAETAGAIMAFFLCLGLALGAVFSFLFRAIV
Further: assay procedure not described here.

Chain of Melanocortin receptor 3 (P41968 whole entry): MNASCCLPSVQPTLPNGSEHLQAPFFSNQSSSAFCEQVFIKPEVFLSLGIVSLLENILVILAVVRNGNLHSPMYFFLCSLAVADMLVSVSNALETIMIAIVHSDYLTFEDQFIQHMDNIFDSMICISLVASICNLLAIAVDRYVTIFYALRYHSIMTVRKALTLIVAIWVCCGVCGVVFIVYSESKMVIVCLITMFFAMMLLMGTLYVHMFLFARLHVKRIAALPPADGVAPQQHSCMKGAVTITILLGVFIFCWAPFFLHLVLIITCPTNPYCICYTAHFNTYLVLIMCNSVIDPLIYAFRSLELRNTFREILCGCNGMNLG
Chain of Gamma-aminobutyric acid receptor subunit alpha-1 (P62813 whole entry): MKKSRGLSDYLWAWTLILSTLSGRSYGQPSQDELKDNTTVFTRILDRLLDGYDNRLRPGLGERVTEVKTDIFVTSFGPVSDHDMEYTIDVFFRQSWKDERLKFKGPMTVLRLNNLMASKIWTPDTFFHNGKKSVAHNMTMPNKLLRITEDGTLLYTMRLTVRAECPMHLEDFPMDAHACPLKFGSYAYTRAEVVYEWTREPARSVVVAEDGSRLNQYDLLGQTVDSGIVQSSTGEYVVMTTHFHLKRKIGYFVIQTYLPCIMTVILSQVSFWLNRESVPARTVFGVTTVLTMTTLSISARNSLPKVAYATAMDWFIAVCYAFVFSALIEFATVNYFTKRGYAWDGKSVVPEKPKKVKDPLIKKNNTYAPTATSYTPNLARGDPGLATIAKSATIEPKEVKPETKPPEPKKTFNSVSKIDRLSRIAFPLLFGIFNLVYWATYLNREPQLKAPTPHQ
Chain of D(1A) dopamine receptor (P21728 whole entry): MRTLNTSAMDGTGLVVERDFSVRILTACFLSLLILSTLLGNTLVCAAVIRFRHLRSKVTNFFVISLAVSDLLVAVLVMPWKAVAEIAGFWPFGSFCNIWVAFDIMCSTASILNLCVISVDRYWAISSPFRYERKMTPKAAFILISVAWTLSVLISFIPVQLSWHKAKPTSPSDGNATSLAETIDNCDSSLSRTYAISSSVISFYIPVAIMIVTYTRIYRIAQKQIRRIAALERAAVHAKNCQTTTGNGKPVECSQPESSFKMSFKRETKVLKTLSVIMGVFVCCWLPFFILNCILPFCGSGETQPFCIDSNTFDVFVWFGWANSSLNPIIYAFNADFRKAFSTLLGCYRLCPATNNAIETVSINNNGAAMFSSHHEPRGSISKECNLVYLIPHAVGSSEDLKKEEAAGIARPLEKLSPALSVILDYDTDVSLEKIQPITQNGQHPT
Chain of Histamine H2 receptor (P25021 whole entry): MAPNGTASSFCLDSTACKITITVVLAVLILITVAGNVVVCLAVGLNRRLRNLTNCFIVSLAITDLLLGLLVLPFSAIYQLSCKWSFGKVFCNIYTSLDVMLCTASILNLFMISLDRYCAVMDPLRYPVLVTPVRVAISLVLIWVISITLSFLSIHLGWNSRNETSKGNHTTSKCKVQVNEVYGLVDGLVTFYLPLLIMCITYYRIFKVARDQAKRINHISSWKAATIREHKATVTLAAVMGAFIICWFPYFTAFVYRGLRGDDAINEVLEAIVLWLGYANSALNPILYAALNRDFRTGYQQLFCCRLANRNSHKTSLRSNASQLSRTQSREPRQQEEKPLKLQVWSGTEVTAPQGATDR

SMILES	AC50 [1] [µM]	AC50 [2] [µM]	AC50 [3] [µM]	AC50 [4] [µM]	AC50 [5] [µM]	AC50 [6] [µM]	AC50 [7] [µM]	AC50 [8] [µM]	AC50 [9] [µM]	AC50 [10] [µM]
CN1CCCN=C1/C=C/c1cccc(O)c1 [OXANTEL]	> 30	> 30	> 30	> 30	> 30	> 30	> 30	> 30	> 30	
O=C(O)c1nn(Cc2ccc(Cl)cc2Cl)c2ccccc12 [LONIDAMINE]	> 30	> 30	> 30	> 30		> 30	> 30		> 30	> 30
NS(=O)(=O)c1ccc(N2CCCCS2(=O)=O)cc1	> 30	> 30	> 30	> 30	> 30	> 30	> 30	> 30	> 30	
CCCCCCCC(=O)CC[C@@H]1[C@@H](C/C=C\CCCC(=O)O)[C@@H](O)C[C@H]1O [UNOPROSTONE]	> 30	> 30	> 30	> 30	> 30	> 30	> 30		> 30	> 30
CCN1C(=O)NC(c2ccccc2)C1=O (centres undefined) [ETHOTOIN]	> 30	> 30	> 30	> 30		> 30	> 30		> 30	> 30
COC(=O)[C@H]1[C@H]2C[C@@H]3c4[nH]c5ccccc5c4CCN3C[C@H]2C[C@@H](OC(=O)c2cc(OC)c(OC)c(OC)c2)[C@@H]1OC [DESERPIDINE]	> 10	> 30	> 10	> 10	> 10	> 10	> 30	> 30	> 30	> 10
O=C(C[S+]([O-])Cc1ccco1)NC/C=C\COc1cc(CN2CCCCC2)ccn1 (centres undefined) [LAFUTIDINE]	> 30	> 30	> 30	> 10	> 10	> 10	> 10	> 10	> 10	> 10
CCC1(CC)C(=O)NC(=O)N(C)C1=O [METHARBITAL]	> 10	> 30	> 10	> 10	> 10	> 10	> 10	> 10	> 10	> 10
C=C(c1ccccc1OCc1cccc(Cl)c1)n1ccnc1 [CROCONAZOLE]	> 10	> 30	24	> 10	> 10	> 10	> 30	16.2	> 30	> 30
CCN(C(C)=O)c1cccc(-c2ccnc3c(C#N)cnn23)c1 [ZALEPLON]	> 10	> 30	> 10	> 10		> 10	> 30	> 30	> 30	> 30
CC(=O)OCC1=C(C(=O)O)N2C(=O)[C@@H](NC(=O)Cc3cccs3)[C@H]2SC1 [CEPHALOTHIN]	> 30	> 30	> 30	> 30		> 30	> 30		> 30	> 30
CS(=O)(=O)NC(=O)CCC/C=C\C[C@H]1C(=O)C[C@@H](O)[C@@H]1/C=C/[C@@H](O)COc1ccccc1 [SULPROSTONE]	> 30	> 30	> 30	> 30	> 30	> 30	> 30		> 30	> 30
CCC(=O)O[C@H](CC(=O)O)C[N+](C)(C)C [LEVOCARNITINE PROPIONATE]	> 30	> 30	> 30	> 30	> 30	> 30	> 30		> 30	> 30
CN1CCC(=C2c3ccccc3CC(=O)c3sccc32)CC1 [KETOTIFEN]	> 10		> 10	> 10	> 10	> 10	> 10	> 10	> 10	> 10
OCC(CO)N[C@H]1C[C@](O)(CO)[C@@H](O)[C@H](O)[C@H]1O [VOGLIBOSE]	> 30	> 30		> 30	> 30	> 30	> 30	> 30	> 30	> 30
COc1nc(C)nc(Cl)c1N=C1NCCN1 [MOXONIDINE]	6.5	> 30	> 30	16	> 30	> 30	> 30	> 30	> 30	
CC(=O)[C@@]1(O)CC[C@H]2[C@@H]3C[C@H](C)C4=CC(=O)C=C[C@]4(C)[C@@]3(F)[C@@H](O)C[C@@]21C [FLUOROMETHOLONE]	> 10	> 30		> 10	> 10	> 10	> 10	> 10	0.053	> 10
